In DBAASP:
Values after ≈ are worked out from the molar mass of the structure shown. Values joined by “and” are separate entries in the source; they are usually repeats but may differ in a detail not shown here. Equal entries are not always repeated.

Legend:
Assay in all cases: ≥ marks a high value that may be exact or a test limit, other limits are often not marked, values filed in µg/mL are converted to µM
[1] = system: Escherichia coli DH5alpha
Klebsiella pneumoniae = system: Klebsiella pneumoniae
[2] = system: Micrococcus luteus ATCC 9341
Pseudomonas aeruginosa = system: Pseudomonas aeruginosa
Salmonella typhimurium = system: Salmonella typhimurium
Bacillus cereus = system: Bacillus cereus
[3] = system: Bacillus subtilis ATCC 6633
[4] = system: Candida albicans ATCC 2002
[5] = system: Escherichia coli ATCC 25922
Shigella dysenteriae = system: Shigella dysenteriae
[6] = system: Staphylococcus aureus ATCC 2592
Acinetobacter baumannii = system: Acinetobacter baumannii
Enterococcus faecium = system: Enterococcus faecium
[7] = system: Staphylococcus aureus ATCC 43300
Streptococcus pneumoniae = system: Streptococcus pneumoniae
Escherichia coli JW0013 = system: Escherichia coli JW0013
Bacillus subtilis = system: Bacillus subtilis
Escherichia coli ML-35p = system: Escherichia coli ML-35p
[8] = system: Pseudomonas aeruginosa ATCC 27853
[9] = system: Staphylococcus aureus ATCC 25923
Escherichia coli = system: Escherichia coli
[10] = system: Pseudomonas aeruginosa CMCCB 10104
[11] = system: Pseudomonas aeruginosa PAO1
Candida albicans = system: Candida albicans
Staphylococcus aureus = system: Staphylococcus aureus

## CC[C@H](C)[C@H](N)C(=O)N[C@@H](CC(C)C)C(=O)N1CCC[C@H]1C(=O)N[C@@H](Cc1c[nH]c2ccccc12)C(=O)N[C@@H](CCCCN)C(=O)N[C@@H](Cc1c[nH]c2ccccc12)C(=O)N[C@@H](C)C(=O)N[C@@H](Cc1c[nH]c2ccccc12)C(=O)N[C@@H](Cc1c[nH]c2ccccc12)C(=O)N1CCC[C@H]1C(=O)N[C@@H](Cc1c[nH]c2ccccc12)C(=O)N[C@@H](CCCN=C(N)N)C(=O)N[C@@H](CCCN=C(N)N)C(N)=O [ILPWKWAWWPWRR]
[1]
  MIC: 10 µM (≈ 18.8 µg/mL)
Klebsiella pneumoniae
  MIC: 15 µM (≈ 28.2 µg/mL)
[2]
  MIC: 0.4 µM (≈ 0.752 µg/mL)
Pseudomonas aeruginosa
  MIC: 50 µM (≈ 94 µg/mL)
Salmonella typhimurium
  MIC: 25 µM (≈ 47 µg/mL)

## CC[C@H](C)[C@H](NC(=O)CN)C(=O)N[C@@H](CC(C)C)C(=O)N[C@@H](CC(=O)O)C(=O)N1CCC[C@H]1C(=O)N[C@H](C(=O)N[C@@H](CCCCN)C(=O)N[C@@H](C)C(=O)N[C@@H](Cc1ccccc1)C(=O)N[C@@H](C)C(=O)N[C@@H](CCCCN)C(=O)N[C@@H](C)C(=O)N[C@@H](C)C(=O)NCC(N)=O)[C@@H](C)CC [GILDPIKAFAKAAG]
Bacillus cereus
  MIC: 16 µM (≈ 22 µg/mL)
[3]
  MIC: 8.02 µM (≈ 11 µg/mL)
[4]
  MIC: ≥ 32.1 µM
[5]
  MIC: 16 µM (≈ 22 µg/mL)
Pseudomonas aeruginosa
  MIC: 8.02 µM (≈ 11 µg/mL)
Shigella dysenteriae
  MIC: 4.01 µM (≈ 5.5 µg/mL)
[6]
  MIC: 4.01 µM (≈ 5.5 µg/mL)

## CC[C@H](C)[C@H](NC(=O)CNC(=O)[C@H](Cc1cnc[nH]1)NC(=O)CNC(=O)CN)C(=O)N[C@@H](CCCN=C(N)N)C(=O)N[C@@H](CCCN=C(N)N)C(=O)N[C@H](C(=O)N[C@H](C(=O)N[C@@H](CCCN=C(N)N)C(=O)N[C@@H](CCCCN)C(=O)N[C@H](C(=O)N[C@H](C(=O)N[C@@H](Cc1cnc[nH]1)C(=O)N[C@H](C(=O)N[C@H](C(=O)N[C@@H](CCCCN)C(=O)N[C@@H](CCCCN)C(N)=O)[C@@H](C)CC)[C@@H](C)CC)[C@@H](C)CC)[C@@H](C)CC)[C@@H](C)CC)[C@@H](C)CC [GGHGIRRIIRKIIHIIKK]
Acinetobacter baumannii
  MIC: 2.7 µM (≈ 5.69 µg/mL)
Enterococcus faecium
  MIC: 16 µM (≈ 33.7 µg/mL)
[5]
  MIC: > 16 µM
Klebsiella pneumoniae
  MIC: 16 µM (≈ 33.7 µg/mL)
Pseudomonas aeruginosa
  MIC: > 16 µM
[7]
  MIC: 16 µM (≈ 33.7 µg/mL)
Streptococcus pneumoniae
  MIC: 16 µM (≈ 33.7 µg/mL)

## CC[C@H](C)[C@H](NC(=O)[C@H](CCCN=C(N)N)NC(=O)[C@H](CCCN=C(N)N)NC(=O)[C@@H]1CCCN1C(=O)[C@@H]1CCCN1C(=O)[C@H](CCCN=C(N)N)NC(=O)[C@@H]1CCCN1C(=O)[C@H](CCCN=C(N)N)NC(=O)[C@@H]1CCCN1C(=O)[C@H](CC(C)C)NC(=O)[C@H](Cc1cnc[nH]1)NC(=O)[C@@H]1CCCN1C(=O)[C@@H]1CCCN1C(=O)[C@H](CCCCN)NC(=O)[C@H](CC(=O)O)NC(=O)[C@@H](N)C(C)C)C(=O)N[C@@H](Cc1ccc(O)cc1)C(=O)N[C@@H](CC(N)=O)C(=O)N[C@@H](CCCN=C(N)N)C(N)=O [VDKPPHLPRPRPPRRIYNR]
Escherichia coli JW0013
  MIC: 2.03 µM (≈ 4.8 µg/mL)

## CC[C@H](C)[C@H](NC(=O)CNC(=O)[C@H](CCSC)NC(=O)CNC(=O)[C@H](C)NC(=O)[C@H](CO)NC(=O)[C@H](CCCCN)NC(=O)[C@H](C)NC(=O)[C@H](CC(C)C)NC(=O)[C@H](CC(=O)O)NC(=O)[C@@H](NC(=O)[C@H](C)NC(=O)[C@@H](NC(=O)[C@@H](NC(=O)[C@H](CCCCN)NC(=O)[C@@H](NC(=O)[C@H](CCCCN)NC(=O)[C@H](CC(=O)O)NC(=O)[C@H](CCCN=C(N)N)NC(=O)[C@@H](NC(=O)[C@@H](N)CO)[C@@H](C)CC)[C@@H](C)CC)[C@@H](C)O)[C@@H](C)CC)[C@@H](C)CC)C(=O)N[C@@H](CC(C)C)C(=O)N[C@@H](CCCCN)C(=O)N[C@H](C(=O)N[C@@H](CC(C)C)C(=O)N[C@H](C(=O)N[C@H]1CSSC[C@@H](C(=O)O)NC(=O)[C@H](CO)NC(=O)[C@H](CCCCN)NC(=O)[C@H](CC(=O)O)NC(=O)[C@H](CC(C)C)NC(=O)[C@H](CCCCN)NC1=O)[C@@H](C)CC)[C@@H](C)O [SIRDKIKTIAIDLAKSAGMGILKTLICKLDKSC]
Bacillus subtilis
  MIC: 5.28 µM (≈ 18.7 µg/mL)
[4]
  MIC: 4.23 µM (≈ 15 µg/mL)
Escherichia coli ML-35p
  MIC: 7.05 µM (≈ 25 µg/mL)
[8]
  MIC: > 28.2 µM
[9]
  MIC: 4.65 µM (≈ 16.5 µg/mL)

## CC[C@H](C)[C@H](NC(=O)[C@@H](NC(=O)[C@@H](NC(=O)[C@H](CCCN=C(N)N)NC(=O)[C@H](Cc1cnc[nH]1)NC(=O)[C@H](Cc1ccccc1)NC(=O)[C@H](Cc1cnc[nH]1)NC(=O)CNC(=O)[C@H](CCCCN)NC(=O)[C@H](CO)NC(=O)[C@H](CCCCN)NC(=O)[C@H](CC(=O)O)NC(=O)[C@H](Cc1cnc[nH]1)NC(=O)[C@H](CC(=O)O)NC(=O)[C@H](CCCN=C(N)N)NC(=O)CNC(=O)[C@H](CCC(=O)O)NC(=O)[C@H](CCC(N)=O)NC(=O)[C@H](CCCCN)NC(=O)[C@H](CC(N)=O)NC(=O)[C@@H](N)Cc1cnc[nH]1)C(C)C)C(C)C)C(=O)N[C@@H](Cc1cnc[nH]1)C(=O)N[C@@H](Cc1cnc[nH]1)C(=O)N[C@@H](CCCCN)C(=O)NCC(=O)NCC(=O)N[C@@H](CCCCN)C(=O)N[C@@H](C)C(=O)N[C@@H](Cc1cnc[nH]1)C(=O)O [HNKQEGRDHDKSKGHFHRVVIHHKGGKAH]
[5]
  MIC: 1.67 µM (≈ 5.64 µg/mL)
Escherichia coli ML-35p
  MIC: 2.2 µM (≈ 7.44 µg/mL)
Escherichia coli
  MIC: 1.05 µM and 1.17 µM
[8]
  MIC: 1.57 µM (≈ 5.29 µg/mL)
[10]
  MIC: 2.17 µM (≈ 7.34 µg/mL)
[11]
  MIC: 3.81 µM (≈ 12.9 µg/mL)
[9]
  MIC: > 30 µM
[7]
  MIC: > 30 µM

## CC[C@H](C)[C@H](N)C(=O)N[C@@H](CC(C)C)C(=O)N1CCC[C@H]1C(=O)N[C@@H](Cc1c[nH]c2ccccc12)C(=O)N[C@@H](CCCCN)C(=O)N[C@@H](Cc1c[nH]c2ccccc12)C(=O)N1CCC[C@H]1C(=O)N[C@@H](Cc1c[nH]c2ccccc12)C(=O)N[C@@H](Cc1c[nH]c2ccccc12)C(=O)N1CCC[C@H]1C(=O)N[C@@H](Cc1c[nH]c2ccccc12)C(=O)N[C@@H](CCCN=C(N)N)C(=O)N[C@@H](C)C(N)=O [ILPWKWPWWPWRA]
[2]
  MIC: 0.8 µM (≈ 1.46 µg/mL)

## CC[C@H](C)[C@H](NC(=O)[C@H](CCCN=C(N)N)NC(=O)[C@H](CCCN=C(N)N)NC(=O)[C@@H]1CCCN1C(=O)[C@@H]1CCCN1C(=O)[C@H](CCCN=C(N)N)NC(=O)[C@@H](NC(=O)[C@H](CCCN=C(N)N)NC(=O)[C@@H]1CCCN1C(=O)[C@H](CC(C)C)NC(=O)[C@H](Cc1ccc(O)cc1)NC(=O)[C@@H]1CCCN1C(=O)[C@@H]1CCCN1C(=O)[C@H](CCCCN)NC(=O)[C@H](CC(=O)O)NC(=O)[C@@H](N)C(C)C)[C@@H](C)CC)C(=O)N[C@@H](Cc1ccc(O)cc1)C(=O)N[C@@H](CC(N)=O)C(=O)N[C@@H](CCCN=C(N)N)C(N)=O [VDKPPYLPRIRPPRRIYNR]
Escherichia coli JW0013
  MIC: 1.37 µM (≈ 3.3 µg/mL)

## CC(C)C[C@H](N)C(=O)N1CCC[C@H]1C(=O)N[C@@H](Cc1c[nH]c2ccccc12)C(=O)N[C@@H](CCCCN)C(=O)N[C@@H](Cc1c[nH]c2ccccc12)C(=O)N1CCC[C@H]1C(=O)N[C@@H](Cc1c[nH]c2ccccc12)C(=O)N[C@@H](Cc1c[nH]c2ccccc12)C(=O)N1CCC[C@H]1C(=O)N[C@@H](Cc1c[nH]c2ccccc12)C(=O)N[C@@H](CCCN=C(N)N)C(=O)N[C@@H](CCCN=C(N)N)C(N)=O [LPWKWPWWPWRR]
[2]
  MIC: 0.2 µM (≈ 0.359 µg/mL)

## CC[C@H](C)[C@H](NC(=O)CNC(=O)[C@H](CO)NC(=O)[C@H](CC(C)C)NC(=O)[C@H](CC(C)C)NC(=O)CN)C(=O)N[C@@H](CC(C)C)C(=O)NCC(=O)N[C@@H](C)C(=O)NCC(=O)N[C@@H](CCCCN)C(=O)N[C@@H](Cc1cnc[nH]1)C(=O)N[C@H](C(=O)N[C@H](C(=O)N[C@H]1CSSC[C@@H](C(=O)O)NC(=O)[C@H](CC(C)C)NC(=O)CNC(=O)[C@H](CO)NC(=O)[C@H](CC(C)C)NC(=O)CNC1=O)C(C)C)[C@@H](C)CC [GLLSGILGAGKHIVCGLSGLC]
Bacillus subtilis
  MIC: 4.76 µM (≈ 9.36 µg/mL)
[4]
  MIC: 3.81 µM (≈ 7.49 µg/mL)
Candida albicans
  MIC: 4.76 µM (≈ 9.36 µg/mL)
[5]
  MIC: 2.54 µM (≈ 5 µg/mL)
Escherichia coli
  MIC: > 50.8 µM
Shigella dysenteriae
  MIC: 1.27 µM (≈ 2.5 µg/mL)
[6]
  MIC: 1.27 µM (≈ 2.5 µg/mL)
Staphylococcus aureus
  MIC: 38.1 µM (≈ 74.9 µg/mL)
